Assay results as given in article PMC8330100, “Similarities and differences in the localization, trafficking, and function of P-glycoprotein in MDR1-EGFP-transduced rat versus human brain capillary endothelial cell lines” (Fluids and Barriers of the CNS, 2021).
Values belong to the compound of their own block, whether it stands above or below them.

Columns and labels:
[1] = Mannitol permeability assay (basolateral to apical) across RBE4 monolayers; type: in vitro ADME, rat; details: rat
Method: (§1) Incubation was performed under cell culture conditions (37 °C, 5% CO2, humidified atmosphere) on a horizontal shaker (55 rpm). […] Basolateral volume was adjusted after each sampling to compensate for changes in the hydrostatic pressure. TEER measurements before and after the assay were carried out to confirm barrier integrity. The apparent permeability coefficients (Papp) in nm per second were calculated according to Artursson. Each experiment was performed in at least three replicates. As was described for the TEER measurements above, mannitol fluxes were compared in the ThinCert®, Transwell®, and Sarstedt-TC-insert systems, using 6-well and 12-well multiwell plates and different membrane materials. Based on this comparison, all subsequent experiments were performed with ThinCert® cell culture inserts [12-well, 0.4 µm pore size, polyethylene terephthalate (PET)] from Greiner Bio-One.

RBE4 cell monolayers = assay: as above; type: in vitro ADME, rat
Method: as §1

[2] = Mannitol permeability assay (basolateral to apical) across hCMEC/D3 monolayers; type: in vitro ADME, human; details: human
Method: as §1

hCMEC/D3 cell monolayers = assay: as above; type: in vitro ADME, human
Method: as §1

[3] = Paracellular mannitol flux across LLC-MDR1 monolayers; type: in vitro ADME, porcine; details: pig, LLC-PK1, corresponding to the flux per hour, read-out: mannitol permeability
LLC-MDR1 cell monolayers = assay: as above; type: in vitro ADME, porcine
[4] = system: Pgp expression in RBE4 cells; assay: Western blot of Pgp expression, RBE4 cells; type: cell-based, rat
Method: (§2) Piet Borst (The Netherlands Cancer Institute, Amsterdam, The Netherlands) as template. The linker sequence in the vector fusing EGFP and MDR1 consists of 36 bp ([…]). hCMEC/D3-WT, RBE4-WT, and hCMEC/D3-MDR1-EGFP cell lines were cultivated as previously described. The same culture conditions were used for the newly prepared RBE4-MDR1-EGFP cell line. As described previously, hydrocortisone (1.4 µM) was added to the culture medium to enhance the expression and functionality of Pgp and transendothelial resistance. All endothelial cell lines were grown on rat-tail collagen I (60 µg/mL, Gibco) coated 100 mm cultures dishes or permeable membrane supports at 37 °C and 5% CO2. Pgp-EGFP protein expression in MDR1-EGFP transduced cells was induced by cell cultivation in medium containing […] doxycycline. Expression of Pgp-EGFP was regularly verified by observing the cells with an inverted fluorescence microscope. Doxycycline supplementation of the medium was maintained during the whole culturing period of Pgp-EGFP expressing cells. For experiments, hCMEC/D3 and RBE4 cells were seeded in a density of 50,000 cells/cm^2. […]
(§3) Pgp expression in immortalized cell lines, primary cells, and brain capillaries was evaluated by western blotting.

[5] = system: Pgp expression in hCMEC/D3 cells; assay: Western blot of Pgp expression, hCMEC/D3 cells; type: cell-based, human
Method: as §2, §3

Pgp in RBE4-WT cells = assay: Rhodamine 123 uptake/accumulation assay, RBE4-WT cells; type: cell-based, rat; details: tariquidar 0.5 µM
Method: The functionality of Pgp in RBE4-WT, RBE4-MDR1-EGFP, hCMEC/D3-WT, hCMEC/D3-MDR1-EGFP cells, and primary rBCECs was analyzed by measuring the uptake of the fluorescent Pgp substrate Rho123 (Sigma-Aldrich). Cells were grown on 6-well plates and cultured for seven days in the presence or absence of doxycycline (1 µg/mL, Biochrom). […] Afterward, Rho123 (5 µM, dissolved in ethanol) was added and cells were incubated for another two hours. Rho123 transport was terminated by washing the cells twice with ice-cold PBS. Intracellular Rho123 concentration was determined by cell lysis in standard lysis buffer (25 mM Tris, 50 mM NaCl, 0.5% (w/v) sodium deoxycholate, 0.5% (w/v) Triton X-100) and measurement of fluorescence intensity with the FLUOstar OPTIMA (ex.: 485 nm, em.: 520 nm; BMG Labtech). Protein concentrations were determined using a BCA assay kit (Thermo Fisher Scientific). Rho123 uptake was obtained for each condition in triplicates and calculated as absolute fluorescence per mg protein. Additionally, Pgp functionality was expressed as multidrug resistance activity factor (MAF) as described by Huber et al.. This factor describes Pgp efflux activity based on differences in intracellular Rho123 accumulation in cells after Pgp inhibition compared to cells with active Pgp-mediated efflux. Thus, higher MAF values correlate with increased Pgp activity. For better comparison, differences in Rho123 accumulation are normalized to intracellular Rho123 levels in inhibitor-treated cells. MAF values for Pgp were calculated according to Huber et al. 2012 utilizing the following equation: MAF (%) = 100 · (MFITQ − MFI0)/(MFITQ) where MFITQ and MFI0 represent the mean fluorescence intensity of intracellular Rho123 in tariquidar (TQ)-treated and non-treated cells, respectively.

[6] = molecular target: T1, Pgp in RBE4-MDR1-EGFP cells (Homo sapiens, UniProt P08183); assay: Rhodamine 123 uptake/accumulation assay, RBE4-MDR1-EGFP cells; type: cell-based, rat; details: RBE4-MDR1-EGFP in the presence of doxycycline; tariquidar 0.5 µM
T1 construct: expressed in transfected cells; host or cells: RBE4 (rat BCEC line), lentiviral transduction, doxycycline-inducible
Method: as §2, with “cells/cm^2. Immortalized MDR1 transfected porcine kidney LLC-PK1 (LLC-MDR1) cells, which were used as a reference standard for vectorial transport experiments, were kindly provided by Prof. Piet Borst.” for “cells/cm^2.”

Pgp in hCMEC/D3-WT cells = molecular target: T2, Pgp in hCMEC/D3-WT cells (Homo sapiens, UniProt P08183); assay: Rhodamine 123 uptake/accumulation assay, hCMEC/D3-WT cells; type: cell-based; details: tariquidar 0.5 µM
T2 construct: endogenous in cells; host or cells: hCMEC/D3-WT
Method: The functionality of Pgp in RBE4-WT, RBE4-MDR1-EGFP, hCMEC/D3-WT, hCMEC/D3-MDR1-EGFP cells, and primary rBCECs was analyzed by measuring the uptake of the fluorescent Pgp substrate Rho123 (Sigma-Aldrich). Cells were grown on 6-well plates and cultured for seven days in the presence or absence of doxycycline (1 µg/mL, Biochrom). […] Afterward, Rho123 (5 µM, dissolved in ethanol) was added and cells were incubated for another two hours. Rho123 transport was terminated by washing the cells twice with ice-cold PBS. […] Rho123 uptake was obtained for each condition in triplicates and calculated as absolute fluorescence per mg protein. Additionally, Pgp functionality was expressed as multidrug resistance activity factor (MAF) as described by Huber et al. [40]. This factor describes Pgp efflux activity based on differences in intracellular Rho123 accumulation in cells after Pgp inhibition compared to cells with active Pgp-mediated efflux. Thus, higher MAF values correlate with increased Pgp activity. […] MAF values for Pgp were calculated according to Huber et al. 2012 utilizing the following equation: MAF (%) = 100 · (MFITQ − MFI0)/(MFITQ) where MFITQ and MFI0 represent the mean fluorescence intensity of intracellular Rho123 in tariquidar (TQ)-treated and non-treated cells, respectively.

Pgp in primary rBCECs = assay: Rhodamine 123 uptake/accumulation assay, primary rBCECs; type: cell-based, rat; details: tariquidar 0.5 µM, P < 0.0001
From the text: The RBE4 and hCMEC/D3 cell lines used here are immortalized, which has the advantage that these cells are stable for several passages and may yield a large number of endothelial cells with the same genetic and phenotypical characteristics. The immortalization status, however, causes several alterations as compared to the native original cell type, including low junctional tightness of cell monolayers and reduced expression of efflux transporters such as Pgp. Therefore, for comparison with the MDR1-EGFP transduced rat RBE4 cells, experiments were also performed with primary cultured rat brain capillary endothelial cells (rBCECs). As described by us previously, rBCECs were prepared following a protocol by Régina et al. and Perrière et al. from 2 to 3 weeks old Wistar rats (obtained from Charles River; Sulzfeld, Germany). All animals were treated according to protocols evaluated and approved by the ethical committee of our university. In short, meninges were removed from cerebral cortices in phosphate-buffered saline (PBS) with 1% penicillin (100 U/mL)/streptomycin (100 μg/mL) (Biochrom AG) on ice. Subsequently, cortices were mechanically dissociated with scalpels. […]
The functionality of Pgp in RBE4-WT, RBE4-MDR1-EGFP, hCMEC/D3-WT, hCMEC/D3-MDR1-EGFP cells, and primary rBCECs was analyzed by measuring the uptake of the fluorescent Pgp substrate Rho123 (Sigma-Aldrich). […] Intracellular Rho123 concentration was determined by cell lysis in standard lysis buffer (25 mM Tris, 50 mM NaCl, 0.5% (w/v) sodium deoxycholate, 0.5% (w/v) Triton X-100) and measurement of fluorescence intensity with the FLUOstar OPTIMA (ex.: 485 nm, em.: 520 nm; BMG Labtech). Protein concentrations were determined using a BCA assay kit (Thermo Fisher Scientific). Rho123 uptake was obtained for each condition in triplicates and calculated as absolute fluorescence per mg protein. Additionally, Pgp functionality was expressed as multidrug resistance activity factor (MAF) as described by Huber et al.. […]

[7] = RBE4-MDR1 + dox, 7 days after seeding, basolateral to apical, ThinCert 12-well, 0.4 µm, PET
[8] = RBE4-WT, 6-well, Corning #3412, PC, 1·10^8 pores/cm²
[9] = RBE4-WT, 12-well, Corning #3460, PET, 4·10^6 pores/cm²
[10] = RBE4-WT, 12-well, Sarstedt #83.3931.040, PET, 1·10^8 pores/cm²
[11] = RBE4-WT, 7 days after seeding, basolateral to apical, ThinCert (Greiner #665641) 12-well, 0.4 µm, PET, 2·10^6 pores/cm²
[12] = hCMEC/D3-MDR1 + dox, 7 days after seeding, basolateral to apical, ThinCert 12-well, 0.4 µm, PET
[13] = hCMEC/D3-WT, 12-well, Corning #3460, PET, 4·10^6 pores/cm²
[14] = hCMEC/D3-WT, 7 days after seeding, basolateral to apical, ThinCert (Greiner #665641) 12-well, 0.4 µm, PET, 2·10^6 pores/cm²
[15] = hCMEC/D3-WT, 6-well, Corning #3412, PC, 1·10^8 pores/cm²

T2 sequence (P08183 whole entry): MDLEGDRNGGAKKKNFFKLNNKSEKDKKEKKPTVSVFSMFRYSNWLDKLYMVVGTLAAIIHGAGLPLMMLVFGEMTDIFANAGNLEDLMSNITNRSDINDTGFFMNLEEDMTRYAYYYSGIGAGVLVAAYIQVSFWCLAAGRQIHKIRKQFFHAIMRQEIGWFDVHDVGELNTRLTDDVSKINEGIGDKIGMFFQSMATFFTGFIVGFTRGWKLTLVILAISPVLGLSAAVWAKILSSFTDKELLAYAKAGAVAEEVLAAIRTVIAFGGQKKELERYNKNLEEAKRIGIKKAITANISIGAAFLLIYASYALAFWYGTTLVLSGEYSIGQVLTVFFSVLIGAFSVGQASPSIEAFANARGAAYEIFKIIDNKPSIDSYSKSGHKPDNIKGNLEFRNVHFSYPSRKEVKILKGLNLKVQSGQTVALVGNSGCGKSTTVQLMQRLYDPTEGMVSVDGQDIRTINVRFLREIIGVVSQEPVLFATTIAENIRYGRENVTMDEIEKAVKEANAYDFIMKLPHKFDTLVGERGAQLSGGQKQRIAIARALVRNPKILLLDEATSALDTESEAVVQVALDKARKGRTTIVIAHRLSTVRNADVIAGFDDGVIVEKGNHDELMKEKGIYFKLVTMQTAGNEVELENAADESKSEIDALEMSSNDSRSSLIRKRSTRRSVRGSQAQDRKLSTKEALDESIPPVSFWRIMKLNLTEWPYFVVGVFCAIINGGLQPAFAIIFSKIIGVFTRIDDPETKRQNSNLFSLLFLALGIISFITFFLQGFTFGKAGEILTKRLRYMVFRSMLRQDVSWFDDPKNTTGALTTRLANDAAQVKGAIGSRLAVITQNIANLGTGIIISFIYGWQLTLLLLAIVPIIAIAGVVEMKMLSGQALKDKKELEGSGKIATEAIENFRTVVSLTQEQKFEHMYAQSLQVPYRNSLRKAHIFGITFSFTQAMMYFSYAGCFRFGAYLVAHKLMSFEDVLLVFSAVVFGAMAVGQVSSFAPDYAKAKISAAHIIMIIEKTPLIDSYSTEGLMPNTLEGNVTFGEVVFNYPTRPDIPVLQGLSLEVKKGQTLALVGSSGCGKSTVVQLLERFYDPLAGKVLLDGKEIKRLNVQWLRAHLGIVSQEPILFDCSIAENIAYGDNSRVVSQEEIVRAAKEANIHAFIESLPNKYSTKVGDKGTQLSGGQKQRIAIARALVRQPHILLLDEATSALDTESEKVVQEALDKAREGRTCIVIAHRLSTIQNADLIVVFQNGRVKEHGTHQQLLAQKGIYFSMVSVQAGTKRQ
T1 sequence (P08183 with tags, fused parts or gaps): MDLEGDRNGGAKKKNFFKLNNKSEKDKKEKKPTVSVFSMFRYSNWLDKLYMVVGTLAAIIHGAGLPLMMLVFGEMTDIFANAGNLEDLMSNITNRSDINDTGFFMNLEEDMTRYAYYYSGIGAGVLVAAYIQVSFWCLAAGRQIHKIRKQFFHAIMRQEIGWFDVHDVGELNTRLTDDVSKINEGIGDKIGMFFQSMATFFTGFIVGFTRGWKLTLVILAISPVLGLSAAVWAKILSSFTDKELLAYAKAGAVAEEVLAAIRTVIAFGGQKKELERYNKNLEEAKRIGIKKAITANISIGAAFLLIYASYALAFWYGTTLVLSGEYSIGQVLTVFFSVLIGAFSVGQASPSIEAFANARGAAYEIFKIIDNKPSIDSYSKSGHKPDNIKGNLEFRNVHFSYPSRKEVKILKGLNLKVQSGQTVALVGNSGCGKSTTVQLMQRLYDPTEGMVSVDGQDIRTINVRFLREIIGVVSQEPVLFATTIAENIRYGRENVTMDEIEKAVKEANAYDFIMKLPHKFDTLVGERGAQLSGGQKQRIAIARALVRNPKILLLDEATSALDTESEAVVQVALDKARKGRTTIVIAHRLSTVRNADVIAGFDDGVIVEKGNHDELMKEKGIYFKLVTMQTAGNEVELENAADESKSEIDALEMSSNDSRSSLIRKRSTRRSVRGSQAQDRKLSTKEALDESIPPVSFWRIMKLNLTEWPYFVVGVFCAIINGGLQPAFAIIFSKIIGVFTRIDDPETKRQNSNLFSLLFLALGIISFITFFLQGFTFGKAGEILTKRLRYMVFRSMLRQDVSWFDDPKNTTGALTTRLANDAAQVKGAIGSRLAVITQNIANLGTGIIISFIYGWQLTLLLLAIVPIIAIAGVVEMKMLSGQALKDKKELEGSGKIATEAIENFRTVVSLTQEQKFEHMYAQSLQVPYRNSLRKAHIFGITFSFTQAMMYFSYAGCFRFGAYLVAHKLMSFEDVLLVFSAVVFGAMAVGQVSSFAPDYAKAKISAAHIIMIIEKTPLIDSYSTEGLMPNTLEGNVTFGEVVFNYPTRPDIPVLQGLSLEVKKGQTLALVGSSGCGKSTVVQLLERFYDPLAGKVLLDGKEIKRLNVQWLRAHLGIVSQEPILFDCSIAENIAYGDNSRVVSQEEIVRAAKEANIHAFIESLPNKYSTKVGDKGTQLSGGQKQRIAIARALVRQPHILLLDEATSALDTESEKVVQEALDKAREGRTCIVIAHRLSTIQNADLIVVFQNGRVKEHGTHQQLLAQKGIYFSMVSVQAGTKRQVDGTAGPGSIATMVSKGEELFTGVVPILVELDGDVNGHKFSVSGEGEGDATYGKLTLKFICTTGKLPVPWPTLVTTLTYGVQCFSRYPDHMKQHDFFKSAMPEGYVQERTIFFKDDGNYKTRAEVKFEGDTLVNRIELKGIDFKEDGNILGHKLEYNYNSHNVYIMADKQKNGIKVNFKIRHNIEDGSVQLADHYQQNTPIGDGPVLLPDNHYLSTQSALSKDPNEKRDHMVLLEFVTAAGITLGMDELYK

Papp at 180 min, 1.85 kBq/mL [1, 7]: 6.07 ± 0.159 ×10⁻⁶ cm/s
Papp at 180 min, 1.85 kBq/mL [1, 8]: 11.3 ± 1.18 ×10⁻⁶ cm/s
Papp at 180 min, 1.85 kBq/mL [1, 9]: 15.4 ± 0.215 ×10⁻⁶ cm/s
Papp at 180 min, 1.85 kBq/mL [1, 10]: 21 ± 0.352 ×10⁻⁶ cm/s
Papp at 180 min, 1.85 kBq/mL [1, 11]: 5.96 ± 0.407 ×10⁻⁶ cm/s
Mannitol permeability (RBE4 cell monolayers; [7]): 4.30 ± 0.22 %/h
Mannitol permeability (RBE4 cell monolayers; [8]): 13.62 ± 0.80 %/h
Mannitol permeability (RBE4 cell monolayers; [9]): 11.15 ± 0.24 %/h
Mannitol permeability (RBE4 cell monolayers; [10]): 19.18 ± 0.13 %/h
Mannitol permeability (RBE4 cell monolayers; [11]): 4.20 ± 0.30 %/h
Papp at 180 min, 1.85 kBq/mL [2, 12]: 5.67 ± 0.252 ×10⁻⁶ cm/s
Papp at 180 min, 1.85 kBq/mL [2, 13]: 13.5 ± 0.372 ×10⁻⁶ cm/s
Papp at 180 min, 1.85 kBq/mL ([2]; hCMEC/D3-WT, 12-well, Sarstedt #83.3931.040, PET, 1·10^8 pores/cm²): 19.8 ± 0.489 ×10⁻⁶ cm/s
Papp at 180 min, 1.85 kBq/mL [2, 14]: 5.38 ± 0.432 ×10⁻⁶ cm/s
Papp B→A at 180 min, 1.85 kBq/mL [2, 15]: 10 ×10⁻⁶ cm/s
Mannitol permeability (hCMEC/D3 cell monolayers; [12]): 3.81 ± 0.11 %/h
Mannitol permeability (hCMEC/D3 cell monolayers; [15]): 14.76 ± 1.01 %/h
Mannitol permeability (hCMEC/D3 cell monolayers; [13]): 11.17 ± 0.36 %/h
Mannitol permeability (hCMEC/D3 cell monolayers; [14]): 3.71 ± 0.13 %/h
Papp at 180 min, 1.85 kBq/mL [3]: < 1.2 ×10⁻⁶ cm/s
Compound: OC[C@@H](O)[C@@H](O)[C@H](O)[C@H](O)CO [Mannitol, D-mannitol]
paracellular mannitol flux (LLC-MDR1 cell monolayers): less than 1 % of mannitol diffusion per hour

Compound: C[C@H]1c2cccc(O)c2C(=O)C2=C(O)[C@]3(O)C(=O)C(C(N)=O)=C(O)[C@@H](N(C)C)[C@@H]3[C@@H](O)[C@@H]21 [dox, doxycycline]
increase of Pgp expression in comparison to WT cells ([4]; RBE4-MDR1-EGFP in the presence of dox, normalized to β-actin): 9 fold
effect on Pgp expression in WT cells ([4]; RBE4-WT): did not affect
increase of Pgp expression in comparison to WT cells ([5]; hCMEC/D3-MDR1-EGFP in the presence of dox, normalized to β-actin): sevenfold
effect on Pgp expression in WT cells ([5]; hCMEC/D3-WT): did not affect

effect of Pgp inhibitor on increased Pgp-mediated Rho123 efflux [6]: could be inhibited
effect of Pgp inhibitor on accumulation of Rho123 (Pgp in hCMEC/D3-WT cells): significantly increased
Compound: COc1cc2c(cc1OC)CN(CCc1ccc(NC(=O)c3cc(OC)c(OC)cc3NC(=O)c3cnc4ccccc4c3)cc1)CC2 [tariquidar]
effect of Pgp inhibitor on accumulation of Rho123 (Pgp in RBE4-WT cells): significantly increased
effect of Pgp inhibitor in Rho123 uptake assay (Pgp in primary rBCECs): significant effect
